Here are results for six compounds from patent publication US5264445A, “(-)-N"-cyano-N-3-pyridyl-N'-1,2,2-trimethylpropylguanidine” (Eli Lilly and Company, priority 1992, dated 1993).

In one test the test system is Purkinje fiber. Briefly: Purkinje fiber assay: reducing the Purkinje fiber action potential duration. The test is classed as cell-based. The following applies: reducing canine Purkinje fiber action potential duration in vitro, ±SEM. How it is done: (§1) All six compounds were tested in the Purkinje fiber and canine cephalic vein assays taught by Steinberg et al., Journal of Cardiovascular Pharmacology, 12 (Suppl. 2), S30-S40 (1988). The effective concentration for reducing the Purkinje fiber action potential duration and for relaxing phenylephrine-contracted cephalic veins, respectively, otherwise known as the EC50, was determined for each compound and is reported in Table I.

The test system of test [1] is phenylephrine-contracted cephalic veins. Kind of test: Canine cephalic vein assay: relaxing phenylephrine-contracted cephalic veins. The following applies: relaxing phenylephrine-contracted canine cephalic veins in vitro, ±SEM. The test is classed as cell-based. How it is done:
as §1

Test [2] has as its system spontaneously hypertensive rats. As to conditions: cited from earlier work.
Test [3] relates to potassium channels. As to conditions: reported by Weston et al., Drugs, 36 (Suppl. 7), 10 (1988); cited from earlier work.
For test [4], the system named is potassium channels. Briefly: Potency as potassium channel opener (comparison of isomers). The following applies: compared with its (+) enantiomer, pinacidil, or any of the pinacidil enantiomers. The text has this:
Pinacidil is currently undergoing clinical trials to determine its antihypertensive potential. By virtue of the branched N-alkyl side chain, pinacidil is a mixture of two enantiomers. Recently, both enantiomers have been prepared and studied -- see, Weston et al., Drugs, 36 (Suppl. 7), 10 (1988).

Setting [5] is: Canis lupus familiaris, purkinje.

For orientation: EC50 means the concentration giving half of the maximal effect. A high value points to a need for much substance.

With `CC(NC(=NC#N)Nc1ccncc1)C(C)(C)C` (single isomer, unassigned; (+)) [(+)-Pinacidil], the EC50 in the test on Purkinje fiber turned out to be 55000 ± 9600 nM; in test [1], 9550 ± 70 nM.
Take `CC(NC(=NC#N)Nc1cccnc1)C(C)(C)C` (racemic) [N"-cyano-N-3-pyridyl-N'-1,2,2-trimethylpropylguanidine]: the figures for the EC50 (in the test on Purkinje fiber (setting [5]); in test [1] (Canis lupus familiaris)) were 500 ± 30 nM and 560 ± 140 nM, respectively. For the same compound, the “minimal effective dose (MED) to decrease blood pressure” value in test [2] is given as 1 mg/kg.
In the case of `CC(N/C(=N\C#N)Nc1ccncc1)C(C)(C)C` (racemic) [(±)-Pinacidil, N"-cyano-N-4-pyridyl-N'-1,2,2-trimethylpropylguanidine], the EC50 in the test with Purkinje fiber (setting [5]) stood at 3000 ± 1000 nM; in test [1] (Canis lupus familiaris), 760 ± 120 nM. Also, in test [2], the “minimal effective dose (MED) to decrease blood pressure” value is 0.5 mg/kg.
Consider `CC(NC(=NC#N)Nc1ccncc1)C(C)(C)C` (single isomer, unassigned; (-)) [(-)-Pinacidil], for which the “relative potency of pinacidil enantiomers” value with potassium channels [3] is “more potent than the (+) isomer”. Also, the EC50 came out at 3200 ± 1200 nM with Purkinje fiber and 440 ± 100 nM in test [1].
As for `CC(NC(=NC#N)Nc1cccnc1)C(C)(C)C` (single isomer, unassigned; (-)) [(-)-N"-cyano-N-3-pyridyl-N'-1,2,2-trimethylpropylguanidine], in the test with potassium channels [4], the “relative potency as a potassium channel opener” value was “considerably more potent”. The EC50 was 430 ± 260 nM with Purkinje fiber and 90 ± 30 nM in test [1].
On to `CC(NC(=NC#N)Nc1cccnc1)C(C)(C)C` (single isomer, unassigned; (+)) [(+)-N"-cyano-N-3-pyridyl-N'-1,2,2-trimethylpropylguanidine], for which the EC50 in the test on Purkinje fiber came out at 23000 ± 4700 nM; in test [1] it was 6410 ± 1800 nM.
